The text below walks through data of patent US9926369B2, “Methods for treating hepatocellular cancer by administering an anti-Ang-2 antibody” (Regeneron Pharmaceuticals, Inc., priority 2009, dated 2018).

pKd: −log10 of the molar value.

Experiment [1] relates to COLO 205 (Human Colorectal Adenocarcinoma Cell Line) tumors. Put plainly: COLO 205 mouse tumor model. The class given is in vivo, mice. The procedure: Briefly, 2×10^6COLO 205 cells in 100 μl of serum-free medium were injected subcutaneously into the flank of 6-8 week old male NCr nude mice (Taconic, Hudson, N.Y.). After tumor volumes reached an average of about 150 mm^3, mice were randomized into groups for treatment with antibody or Fc protein. Mice in each treatment group were administered an anti-Ang-2 antibody or Fc protein at a concentration of 4 mg/kg via intraperitoneal injection twice per week for approximately two weeks. Tumor volumes were measured twice per week over the course of the experiment and tumor weights were measured upon excision of tumors at the conclusion of the experiment. Averages (mean+/−standard deviation) of tumor weight and growth were calculated for each treatment group. “Avg. Tumor Growth” represents the average growth from the time of treatment initiation (when tumors were approximately 150 mm^3). Percent decrease of tumor weight and growth are calculated from comparison to Fc protein measurements.
A similar experiment was carried out to assess the effect of H1H685P, in particular, on COLO 205 tumor growth. Briefly, 2×10^6 COLO 205 cells in 100 μl of serum-free medium were implanted subcutaneously into the right hind flank of 9-11 week-old male SCID CB17 mice. When the tumors reached ˜125 mm^3, mice were randomized into 5 groups (n=7-8 mice/group) and treated twice per week with Fc protein (15 mg/kg), H1H685P (5 or 25 mg/kg) or Control II (5 or 25 mg/kg) for a period of 19 days. Tumor volumes were measured twice per week over the course of the experiment and tumor weights were measured upon excision of tumors at the end of the experiment. Averages of tumor weight and growth from the beginning of treatment were calculated for each group. Percent decrease of tumor weight and growth are calculated from comparison to the Fc control group.
To determine the effect of combining an anti-Ang-2 antibody with a VEGF inhibitor on the growth of COLO 205 xenografts, 2×10^6 cells were implanted subcutaneously into the right hind flank of 6-8 week-old female SCID mice. When the tumors reached an average volume of ˜350 mm^3, mice were randomized into 4 groups (n=6 mice/group) and treated with: human Fc protein (7.5 mg/kg), H1H685P (5 mg/kg), VEGF Trap (see U.S. Pat. No. 7,087,411) (2.5 mg/kg) or the combination of H1H685P+VEGF Trap. Mice were given a total of 3 doses over 10 days of treatment. Tumor volumes were measured twice per week over the course of the experiment. Averages of tumor growth from the start of treatment (mean+/−standard deviation) were calculated for each treatment group. Percent decrease of tumor growth was calculated from comparison to the Fc control group.
To test the effect of H1H685P in combination with a chemotherapeutic agent on tumor growth, 2.5×10^6 COLO 205 tumor cells were implanted subcutaneously into the right hind flank of 8-9 week-old male SCID mice. When the tumors reached an average volume of ˜150 mm^3 (day 17 after implantation), mice were randomized into 4 groups (n=5 mice/group) and treated as follows: the first group was treated sc with 15 mg/kg hFc and intraperitoneally (ip) with 5-FU vehicle; the second group was treated sc with 15 mg/kg of H1H685P; the third group was treated ip with 75 mg/kg of 5-FU; the fourth group was treated with the combination of 15 mg/kg H1H685P sc plus 75 mg/kg 5-FU ip. Mice received a total of three treatments, administered every 3-4 days. Tumor volumes were measured twice per week over the course of the experiment. Average (mean+/−standard deviation) tumor growth from the beginning of treatment until day 38 was calculated for each group. Percent decrease of tumor growth was calculated from comparison to the control group.

Experiment [2] deals with Dimeric Monkey Ang-2FD. Briefly: Surface plasmon resonance binding to dimeric monkey Ang-2FD conjugated to human IgG1. As to conditions: SPR, room temperature. Set-up: species or system Macca fascicularis. The procedure: Equilibrium dissociation constants (KD values) for the binding of selected purified Ang-2 antibodies to dimeric fibrinogen-like domain of human (SEQ ID NO: 519), mouse (Mus musculus; SEQ ID NO: 520) and monkey (Macca fascicularis; SEQ ID NO: 521) Ang-2 (Ang-2FD) conjugated to human IgG1 (SEQ ID NO:528) were determined by surface kinetics using a real-time biosensor surface plasmon resonance assay. Antibody was captured on a goat anti-mouse IgG polyclonal antibody surface, a goat anti-human κ polyclonal antibody (Southern Biotech, Birmingham, Ala.) surface or a goat anti-human IgG polyclonal antibody (Jackson Immuno Research Lab, West Grove, Pa.) surface created through direct amine coupling to a BIACORE™ CM5 sensor chip to form a captured antibody surface. Varying concentrations (ranging from 50 nM to 6.25 nM) of protein were injected at 100 μl/min over captured antibody surface for 90 seconds. Antigen-antibody binding and dissociation were monitored in real time at room temperature. Kinetic analysis was performed to calculate KD and half-life of antigen/antibody complex dissociation.
The above experiment was repeated using selected purified anti-Ang-2 antibodies cloned onto human IgG1.

Setting [3] is: COLO 205, SCID CB17 mice, 5 mg/kg twice per week, 19 days.
The mark [4] stands for this setting: COLO 205, SCID CB17 mice, 25 mg/kg twice per week, 19 days.
The mark [5] stands for this setting: COLO 205, female SCID mice, H1H685P 5 mg/kg, VEGF Trap 2.5 mg/kg, 3 doses over 10 days.
Setting [6] is: COLO 205, male SCID mice, H1H685P 15 mg/kg sc, 5-FU 75 mg/kg ip, three treatments, until day 38.

Dimeric Monkey Ang-2FD, sequence (as listed by the source): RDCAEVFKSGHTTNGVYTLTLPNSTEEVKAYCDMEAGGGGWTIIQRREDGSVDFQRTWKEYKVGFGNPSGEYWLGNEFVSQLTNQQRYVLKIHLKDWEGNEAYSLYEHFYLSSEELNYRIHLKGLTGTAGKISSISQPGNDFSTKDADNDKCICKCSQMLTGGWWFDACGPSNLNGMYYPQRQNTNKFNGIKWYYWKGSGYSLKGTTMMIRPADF

The pKd is −log10 of the Kd, conventionally taken in molar units. In the case of “H1H685P: human anti-Ang-2 antibody, HCVR/LCVR SEQ ID NOs 18/20; also referred to as mAb1 [Antibody H1H685P]”, in experiment [1] (setting [3]), the “% Decrease in Tumor Growth” value worked out at 45%, the “% Decrease in Tumor Weight” value worked out at 43%, the “Avg Tumor Growth” value is recorded as 370 ± 114 mm^3 and the “Avg Tumor Weight” value was 0.458 ± 0.125 g. Moreover, in experiment [1] (setting [4]), the “% Decrease in Tumor Growth” value worked out at 56%, the “% Decrease in Tumor Weight” value came to 46%, the “Avg Tumor Growth” value is 295 ± 160 mm^3 and the “Avg Tumor Weight” value stood at 0.430 ± 0.139 g. Further, in experiment [1] (setting [5]), the “% Decrease in Tumor Growth” value came out at 80% and the “Avg Tumor Growth” value is 74 ± 77 mm^3. For the same substance, in experiment [1] (setting [6]), the “% Decrease in Tumor Growth” value is reported as 29% and the “Avg Tumor Growth” value was 405 ± 80 mm^3. The “Anti-tumor activities in the COLO 205 mouse model (in words)” value in experiment [1] (mouse, in vivo) is listed as “substantial anti-tumor activities”. The substance also showed a pKd in experiment [2] of 10.00.
